Data on eight compounds can be found in publication PMC6984391, “Anion carriers as potential treatments for cystic fibrosis: transport in cystic fibrosis cells, and additivity to channel-targeting drugs” (Chemical Science, 2019).

Read-outs that look alike come from different tables or passages of the source.

The test system of one test is YFP-FRT cells. Nature of the test: YFP fluorescence plate reader assay of anion transport in YFP-FRT cells. The class given is cell-based, Fischer rat. As to conditions: for anion transport activity in YFP-FRT cells (in words): 50 μM; for Corrected absolute initial slope |dF/dT|: transporter 50 μM, DMSO 0.5% v/v, DMSO-only subtracted, I^– 100 mM. How it is done: We treated YFP-FRT cells with anionophores (final concentration, 1–50 μM) or the vehicle DMSO (0.1–0.5% v/v) by direct addition to the phosphate-buffered saline (PBS) bathing the cells. After incubating YFP-FRT cells with anionophores for 10 minutes at 37 °C, we evaluated anion transport activity by adding I^– (100 mM), using a PBS iodide solution with Cl^– replaced by I^–, and following cell fluorescence for 14 s. FRT cells are relatively impermeable to anions because they lack key ion channels found in epithelial cells, including CFTR.[33] Thus, in the absence of anionophore, iodide cannot enter YFP-FRT cells and no quenching of fluorescence occurs. By contrast, in the presence of an anionophore, iodide influx occurs leading to fluorescence quenching.[29]
To quantify anion transport by different anionophores, we fitted first order exponential functions to the iodide-induced fluorescence decay to measure the initial slope, averaging values over multiple experiments. Fig. 2b and Table 1 summarise the data. Consistent with our previous results,[29] we observed a wide range of anion transport activity. […] We therefore selected for further study 11, 12, 15 and 19.
FRT cells stably expressing the halide sensor YFP-H148Q/I152L6 were generous gifts of AS Verkman (University of California, San Francisco), while CFBE41o- cells7 stably expressing YFP (YFP-CFBE cells) were a generous gift of LJV Galietta (Telethon Institute for […]
Genetics and Medicine). […]
U ml-1 penicillin and […] streptomycin. All cells were incubated at 37 °C in a humidified atmosphere with 5% CO2. […]
Fluorescence plate reader assay […]
quenching of YFP fluorescence at 37 °C using a microplate reader following the method of Galietta et al..9 The microplate reader (model: FLUORstar Omega; BMG LABTECH Ltd., Aylesbury, UK) was equipped with a syringe pump and excitation (500 ± 10 nm) and emission (535 ± 15 nm) filters (Chroma Technology GmbH, Olching, Germany). After washing cells twice with PBS (composition (mM): 137 NaCl, 2.7 KCl, 8.1 Na2HPO4, 1.5 KH2PO4, 1 CaCl2 and 0.5 MgCl2, pH 7.40), cells were incubated with test anionophores (1 – 50 µM) or the vehicle (DMSO [0.1 – 0.5% v v-1]) in 40 µl of PBS for 10 – 120 minutes according to the experimental design. Other compounds, including forskolin, ivacaftor and channel inhibitors were added to […]
the PBS bathing cells 10 minutes prior to PBS iodide addition, whereas UTP was added to cells with the PBS iodide solution. Fluorescence was measured for 14 seconds; 2 seconds before and 12 seconds after injection of 110 µl PBS iodide solution (137 mM Cl- replaced by I-) into each well (to obtain a final concentration of I- of 100 mM).
We expressed cell fluorescence values (F) relative to the fluorescence value immediately before I- injection (F0), excluding the initial decrease, which likely represents the quenching of extracellular YFP released from cells and signal reduction accompanying the increase in solution volume bathing cells. To quantify anion transport by test anionophores, we determined the initial slope of the fluorescence decay following I - addition by fitting first order exponential functions to the last 12 seconds of each fluorescence recording. In each experim ent, n values represent the mean of two replicates and all treatments were tested at least three times using different microplates. […]
FRT cells was selected and the cells were perfused with (i) PBS for 5 minutes then (ii) PBS containing I- (10 mM) (made by preparing PBS with 127 mM NaCl to maintain osmolarity) for 5 minutes and finally (iii) PBS for 30 minutes to remove thoroughly I- from the perfusion chamber. YFP-FRT cells were repeatedly treated with I- (10 mM) and then washed with PBS […]
During all interventions, the rate of solution perfusion was 8 – 10 ml min-1; temperature was 37 °C and except for the first

Details of test [1]: method as in ref [16 and 25], [20], [21], [22], [23], [24], [29] (Reference column). As to conditions: 1H NMR titrations with Bu4N^+Cl^– in DMSO-d6/H2O (200 : 1) at 298 K; ref [16 and 25], [20], [21], [22], [23], [24], [29]; cited from earlier work.
Details of test [2]: method as in ref [20], [21], [23], [24], [29] (Reference column). The conditions noted are these: transporter preincorporated in LUVs (70% POPC + 30% cholesterol), 25 mM NaCl gradient, 225 mM NaNO3; ref [20], [21], [23], [24], [29]; cited from earlier work.
On the set-up of test [3]: method as in PMID 22461434, PMID 21846096, PMID 29786913. The conditions noted are these: mol% carrier to lipid for 50% Cl^– efflux in 270 s; 490 mM NaCl inside, 490 mM NaNO3 outside; ref [22], [16 and 25]; cited from earlier work.
The nature of test [4]: Cl-/NO3- exchange in LUVs with preincorporated anionophore (lucigenin method). Format: biochemical. As to conditions: transporter preincorporated in LUVs (70% POPC + 30% cholesterol), 25 mM NaCl gradient, 225 mM NaNO3; new compound or new data. How it is done:
The four new anionophores were tested for affinity to Cl^– (in CHCl3 and DMSO, with tetra-alkylammonium counter-ions), and for anion transport (Cl^–/NO3^– exchange) when preloaded into 200 nm large unilamellar vesicles (LUVs). The latter assay was performed using the well-established “lucigenin method”[30] in which Cl^– influx into vesicles is followed through quenching of fluorescence from the halide-sensitive fluorophore lucigenin. The results are listed in Table 1, accompanied by corresponding values for the previously-reported compounds where available. […] In this test, anion transport by anionophores delivered externally to LUVs is compared with their action when preloaded into LUV membranes.[24],[29],[32]
3. Transport studies in vesicles
Transport measurements in vesicles with preincorporated anionophores.
1-Palmitoyl-2-oleoyl-sn-glycero-3-phosphocholine (POPC) was obtained from Avanti® Polar Lipids, Inc. An extrusion apparatus and 200 nm polycarbonate membranes were obtained from GC Technology Ltd. All lipid and receptor solutions were prepared using chloroform that had been deacidified by passage through a flash chromatography column containing basic alumina, and all aqueous solutions were prepared using deionised water that had been passed through a Millipore filtration system.
POPC and cholesterol solutions (~10 mM) in deacidified chloroform were combined with a solution of transporter in methanol or deacidified chloroform in a 5 mL round bottomed flask.
Volumes of the aliquots were calculated from the concentrations of the lipid solution to obtain a POPC to cholesterol ratio of 7:3 (for instance by combining 4.20 µmol POPC and 1.80 µmol cholesterol). The ratio of anionophore to lipid (POPC + cholesterol) was either 1:2500 or 1:25000, as specified in the experiments. The solvents from the lipid/receptor mixture were evaporated under a stream of N2 and the lipid film was dried under high vacuum for 1 h. The residue was hydrated with 500 µL of an aqueous solution of 10,10'-dimethyl-9,9'-biacridinium nitrate (lucigenin, 0.8 mM) and NaNO3 (225 mM), sonicated for 30 s and stirred for 1 h to give heterogeneous vesicles. Multilamellar vesicles were disrupted by 10 freeze-thaw cycles and then the solution was diluted to 1 mL (by adding 0.5 mL of 225 mM NaNO3) and carefully extruded (29 times) through a polycarbonate membrane (200 nm pore size) to give a uniform distribution of LUVs with an average diameter of ~200 nm.2 The external lucigenin was removed by passing the solution though a size exclusion column (containing ~2 g Sephadex 50G, eluted with 225 mM NaNO3). The collected vesicles were further diluted with NaNO3 solution (225 mM) to obtain a vesicle solution with 0.4 mM lipid concentration. 3.00 mL of this vesicle solution was placed in a quartz cuvette with a small stir bar and the fluorescence intensity (excitation at 450 nm, emission at 535 nm) was measured over time at 25 °C, using a PerkinElmer LS45 fluorescence spectrometer. 75 µL of aqueous NaCl (1.0 M in 225 mM NaNO3, to give an overall external chloride concentration of 25 mM) was added ~30 seconds after the start of the experiment and the fluorescence intensity was measured for another 14 […]
Fluorescence data were collected for at least four replicate experiments. The plateau (before addition of chloride) and the vertical drop (the first 1-2.5 seconds after chloride addition, due to quenching of external lucigenin) were removed. Next the data were normalized: all fluorescence values (F) were divided by the fluorescence value before addition of chloride (F0).
Initial rates (I) were obtained from fluorescence -decay curves (0-500 s) by fitting their inverse (F0/F) to a double exponential decay function:
Differentiating this gives F = abe−bt + cde−dt […]
and substituting t = 0 gives the following equation for initial rate: I = ab + cd Specific initial rates [I] were obtained by dividing the initial rates by the anionophore to lipid […]

For `O=C(Nc1cc(C(F)(F)F)cc(C(F)(F)F)c1)Nc1cccc2cc3cccc(NC(=O)Nc4cc(C(F)(F)F)cc(C(F)(F)F)c4)c3cc12` [Compound 22], in the test with YFP-FRT cells, the “anion transport activity in YFP-FRT cells (in words)” value was “intermediate levels” and the “Corrected absolute initial slope |dF/dT|” value is on record as 9.0 ×10^–3 s^–1. The “K a to Cl^– in DMSO” value in test [1] was 3.0 × 10^3 M^–1. The “Specific initial rate [I]” value in test [2] is listed as 1900 s^–1.

On to `O=C(Nc1ccc(C(F)(F)F)cc1)Nc1cccc2cc3cccc(NC(=O)Nc4ccc(C(F)(F)F)cc4)c3cc12` [Compound 21], for which the “Corrected absolute initial slope |dF/dT|” value with YFP-FRT cells is 1.7 ×10^–3 s^–1. In test [1], the “K a to Cl^– in DMSO” value is 2.2 × 10^3 M^–1. For the same compound, in test [2], the “Specific initial rate [I]” value is listed as 1200 s^–1.

With `CCc1c(CNC(=S)Nc2ccc([N+](=O)[O-])cc2)c(CC)c(CNC(=S)Nc2ccc([N+](=O)[O-])cc2)c(CC)c1CNC(=S)Nc1ccc([N+](=O)[O-])cc1` [Compound 4], the “Corrected absolute initial slope |dF/dT|” value with YFP-FRT cells was 0.2 ×10^–3 s^–1. In addition, the “K a to Cl^– in DMSO” value in test [1] was 3.8 × 10^2 M^–1. For the same compound, the “Specific initial rate [I]” value in test [2] is listed as 5 s^–1.

In the case of `O=c1c(Nc2ccc(C(F)(F)F)cc2)c(Nc2ccc(C(F)(F)F)cc2)c1=O` [Compound 2], the “EC50, 270 s” value in test [3] is 0.06 mol%. In the test on YFP-FRT cells, the “Corrected absolute initial slope |dF/dT|” value is reported as 0.3 ×10^–3 s^–1. Further, in test [1], the “K a to Cl^– in DMSO” value is reported as 4.6 × 10^2 M^–1.

Take `O=C(Nc1ccc([N+](=O)[O-])cc1)Nc1cccc2cc3cccc(NC(=O)Nc4ccc([N+](=O)[O-])cc4)c3cc12` [Compound 20]: in the test on YFP-FRT cells, the “anion transport activity in YFP-FRT cells (in words)” value is reported as “intermediate levels” and the “Corrected absolute initial slope |dF/dT|” value was 8.4 ×10^–3 s^–1. The “K a to Cl^– in DMSO” value in test [1] is recorded as 2.6 × 10^3 M^–1. In test [2], the “Specific initial rate [I]” value was 2100 s^–1.

For `CCc1c(CNC(=O)Nc2cc(C(F)(F)F)cc(C(F)(F)F)c2)c(CC)c(CNC(=O)Nc2cc(C(F)(F)F)cc(C(F)(F)F)c2)c(CC)c1CNC(=O)Nc1cc(C(F)(F)F)cc(C(F)(F)F)c1` [Compound 7], the “Corrected absolute initial slope |dF/dT|” value in the test on YFP-FRT cells is 0.2 ×10^–3 s^–1. Moreover, the “K a to Cl^– in DMSO” value in test [1] is recorded as 3.9 × 10^2 M^–1. The “Specific initial rate [I]” value in test [2] is 50 s^–1.

Consider `O=c1c(Nc2ccccc2)c(Nc2ccccc2)c1=O` [Compound 1], for which the “EC50, 270 s” value in test [3] is recorded as 1.38 mol%. The “Corrected absolute initial slope |dF/dT|” value with YFP-FRT cells is 0 ×10^–3 s^–1. Moreover, in test [1], the “K a to Cl^– in DMSO” value is on record as 2.6 × 10^2 M^–1.

On to `O=c1c(Nc2cc(C(F)(F)F)cc(C(F)(F)F)c2)c(Nc2cc(C(F)(F)F)cc(C(F)(F)F)c2)c1=O` [Compound 3], for which, in test [3], the “EC50, 270 s” value is 0.01 mol%. For the same compound, the “Corrected absolute initial slope |dF/dT|” value in the test on YFP-FRT cells was 0 ×10^–3 s^–1. Moreover, the “K a to Cl^– in DMSO” value in test [1] is 6.4 × 10^2 M^–1. For the same compound, the “Specific initial rate [I]” value in test [4] is reported as 75 ^b s^–1.
